Assays:
[1] = test system: LAR TNBC cell lines; assay: Cell proliferation/viability assay (alamarBlue) and IC50 determination; assay type: cell-based, human; settings: LAR lines, 72 hours
Description: Cell proliferation/viability assays and IC50 determinations. All cell lines and culture conditions used can be found in Supplemental Methods (Table 5). Short tandem repeat (STR) DNA fingerprinting analysis was performed on all TNBC cell lines used in this study (Cell Line Genetics). […] Breast cancer cell lines and HMECs were seeded (3,000-10,000 cells) in quadruplicate wells in 96-well plates. […] Medium was then replaced with either fresh medium (control) or medium containing half-log serial dilutions of the following drugs: 0.3-30 μM olaparib (ChemieTek), 0.3-30 μM veliparib (ChemieTek), 1-100 μM bicalutamide (IPR Pharmaceutical), 0.3-30 μM cisplatin (APP Pharmaceutical), 3-300 nM NVP-BEZ235 (Chemdea), 10-1000 nM 17-DMAG (ChemieTek), and 0.1-10 μM dasatinib (LC Laboratories). Viability was determined from measuring fluorescent intensity after metabolic reduction of alamarBlue in the presence/absence of the drug after 72 hours. Viability assays were performed in triplicate, and replicates were normalized to untreated wells. […] For analysis of cell-line drug assays, data generated from the different cell lines representative of TNBC subtypes were compared using the nonparametric Mann-Whitney U test. All analyses and graphic representations were performed using Prism software (version 4.0c; GraphPad Software), and values are represented as the mean±SEM.

[2] = test system: HCC1806 and MDA-MB-468 xenograft tumors; assay: Xenograft tumor studies (Example 1), basal-like; assay type: in vivo, mice; settings: cisplatin i.p. 8 mg/kg/wk, approximately 3 weeks, relative to vehicle control; P<0.0001
Description: Xenograft tumor studies. Five-week-old female athymic nude-Foxnlnu mice (Harlan Sprague-Dawley) were injected (s.c.) with either approximately 5×10^6 (CAL-51, HCC1806, MDA-MB-468, and SUM185PE) or approximately 10×10^6 (CAL-148 and SUM159PT) cells suspended in medium (200 μl) into each flank using a 22-gauge needle. The protocols describing the process of xenograft tumor formation in athymic mice were reviewed and approved by the Vanderbilt Institutional Review Board. Once tumors reached a volume of 25-50 mm^3, mice were randomly allocated to treatment or vehicle arms. Treatments included bicalutamide per oral (100 mg/kg/d), cisplatin i.p. (8 mg/kg/wk), or NVP-BEZ235 per oral (50 mg/kg/d) in 1:9 N-methylpyrolidone: PEG300. Tumor diameters were serially measured at the indicated times with digital calipers, and tumor volumes were calculated as width^2×length/2. Data points reflect the means and SEM for 16 tumors per treatment.

[3] = test system: heterogeneous TNBC patient population; settings: neoadjuvant, single agent; cited from earlier work

## N.N.[Cl][Pt][Cl] [cisplatin]
[1]
  IC50: 15 µM
[2]
  xenograft tumor growth: significantly growth inhibited
[3]
  pCR: 21%
